Literature values, collected in patent US20050175694A1, “Long acting compositions comprising zidovudine and lamivudine” (priority 2002, published 2005).

Settings: in vivo

Row | Compound | oral bioavailability [%] | serum half-life [h]
1 | Nc1ccn([C@@H]2CS[C@H](CO)O2)c(=O)n1 [lamivudine] | 86 | 
2 | Cc1cn([C@H]2C[C@H](N=[N+]=[N-])[C@@H](CO)O2)c(=O)[nH]c1=O [zidovudine] | 60 | 1.1
